Read-outs that look alike come from different tables or passages of the source.
How the values were obtained:
[1] = cited from earlier work
[2] = biological target: colchicine site of bovine brain tubulin; format: binding; settings: for Kd: tubulin binding constant, 25 °C, read-out: Kd
Method: Inhibition of this fluorescence increase was measured and converted to K d for the test compound as described.

PC3 = test: Cell-growth inhibition (CellTiter); format: cell-based, human; settings: Homo sapiens, PC-3, 72 h, read-out: Cell Growth Inhibition GI50 ± SE
Method: (§1) Inhibition of cell growth was determined by using standard procedures. Cell lines were obtained from the NCI anticancer drug screen and maintained in DMEM medium supplemented with 10% fetal bovine serum. Growing cells were exposed to serial dilutions of each compound for 3 days. Cell growth was determined with CellTiter Assay Reagent (Promega), and growth parameters, including inhibition of growth, were measured by using the methods specified by the manufacturer.

A549 = test: Cell-growth inhibition (CellTiter); format: cell-based, human; settings: Homo sapiens, A549, 72 h, read-out: Cell Growth Inhibition GI50 ± SE
Method: as §1

M14 = test: Cell-growth inhibition (CellTiter); format: cell-based, human; settings: Homo sapiens, M14, 72 h, read-out: Cell Growth Inhibition GI50 ± SE
Method: as §1

bovine brain tubulin = test: Tubulin polymerization inhibition; format: biochemical; settings: 10 μM tubulin; for Polymerization Inhibition (%) 3.3 μM: 3.3 μM compound; for Polymerization Inhibition (%) 33 μM: 33 μM compound
Method: Inhibition of tubulin polymerization was determined as described previously. In brief, 10 μM bovine brain tubulin (PurSolutions, LLC (puresoluble.com)) was incubated under conditions strongly promoting polymerization of tubulin (1 M NaGlutamate, 0.1 M Mes (Morpholinoethanesulfonic acid), 1 mM MgCl2, 0.5 mM GTP, pH 6.9), in the absence or presence of 3.3 or 33 μM test compound, incubated for 30 min at 37 °C, then centrifuged at 100,000g for 8 min, and the top 3/4 of the supernatant removed. Protein concentration was measured, and polymerization was determined as pelletable protein lost from the supernatant.

[3] = Experimental rotational energy barrier (thermal racemization, chiral HPLC); format: physicochemical
Method: (aR)-6 and (aS)-6 were readily separable from one another and racemic iso -6 through the use of a polysaccharide-based chiral column (Diacel IA column) fitted to an automated medium-pressure liquid chromatography unit (Biotage Isolera Prime). Racemization was observable after heating a solution of either enantiopure (aR)- or (aS)-6 at 135 °C in xylenes over a few hours, and the rate of enantiomerization was extrapolated using the Eyring equation (ΔG ^‡ = 31.2 ± 0.3 kcal/mol). (aR)- and (aS )-iso-6 were separable in an analogous fashion using a chiral IC polysaccharide column. […] Thus, we can project that the rotational energy barrier is […] 37 kcal/mol. However, a computationally determined rotational barrier for iso -6 was 33.5 kcal/mol, which is roughly 3 kcal/mol more than that calculated for 6. One potential explanation for this notable difference in configurational stability is the greater double bond character of the methyl-bearing C^4–C^5 carbon of iso -6 in comparison to the C^5–C^6 in 6, as this would both shorten and rigidify this steric-bearing bond (see Scheme A/B for details). […] Studies have previously described differences in rotational barriers of DAAC (2) and its analogous isomer that, while less dramatic, are consistent with this trend (ΔG ^‡ = 22.1 vs 23.4 kcal/mol). […]
IV. Experimental Profiling of Dihedral Angles
Rotational Energy Barrier Determination. A small spatula tip (~0.2 mg) of either (aR)-6 (aka, (aR)-MT-MTC) or (aS)-6 (aka, (aS)-MT-MTC) was diluted in 2 mL o-xylenes in a large vial containing a stir bar. The solution was heated to 135 °C open to air (temperature set to 135 °C, but fluxuated between 134 and 138 °C).
~100 µL aliquots were extracted from solution using a syringe fitted with a long disposable needle at various time intervals and diluted into automated sample vials containing 500 µL CH2Cl2 to rapidly cool. These samples were monitored on Agilent with an analytical HPLC IA column, using 0 – 40% iPrOH in Hexanes gradient over 30 minutes at a flow rate of 0.5 mL/min, and a pressure of roughly 5 bar). Samples eluted approximately 20 minutes into run, with (aR)-6 eluting first, followed by (aS)-6. Three separate runs were carried out, two of which monitored racemization of (aS)-6, and one of which monitored racemization of (aR)- […]
Integration of the HPLC traces were used to determine enantiomeric excess by calculating the difference between the two enantiomers and dividing that by the sum of the two enantiomers, and then multiplying that […]
provided a slope (corresponding to kracemization), and dividing this number […] providing kenantiomerization (or kent in equation below), with units inverse seconds. A summary of data follows (Table S5), and representative chromatograms illustrated in section VI.

## COc1cc2c(c(OC)c1OC)-c1ccc(OC)c(=O)cc1CCC2 [compound 2, desacetamidocolchicine]
[1]
  ΔG‡ exp, rotational barrier: 22.1 kcal/mol
[1]; room temperature ref 19
  t1/2 rt of racemization: ~ 0.5 h

## COc1ccc(-c2ccc(OC)c(=O)cc2)c(OC)c1OC [compound 3, 2-methoxy-5-(2,3,4-trimethoxyphenyl)-2,4,6-cycloheptatrien-1-one, reference compound]
[2]
  Kd: 3200 nM
PC3
  GI50: 30 ± 5 nM
A549
  GI50: 30 ± 1 nM
M14
  GI50: 30 ± 7 nM
Bovine brain tubulin
  Polymerization Inhibition (%) 3.3 μM: 100%
  Polymerization Inhibition (%) 33 μM: 100%

## COc1ccc(-c2ccc(OC)c(=O)cc2C)c(OC)c1OC [compound 4, 2-Methoxy-6-methyl-5-(2,3,4-trimethoxyphenyl)cyclohepta-2,4,6-trien-1-one]
[2]
  binding constant fold less potent than 3: 5–30 fold
  Kd: 20000 nM
PC3; PC3, 3 days
  GI50: 190 ± 60 nM
A549; A549, 3 days
  GI50: 300 ± 10 nM
M14; M14, 3 days
  GI50: 250 ± 25 nM
Bovine brain tubulin
  Polymerization Inhibition (%) 3.3 μM: 0%
  Polymerization Inhibition (%) 33 μM: 100%

## COc1cc(C)c(-c2ccc(OC)c(=O)cc2)c(OC)c1OC [compound 5, 2-Methoxy-5-(2,3,4-trimethoxy-6-methylphenyl)cyclohepta-2,4,6-trien-1-one]
[2]
  binding constant fold less potent than 3: 5–30 fold
  Kd: 14000 nM
PC3; PC3, 3 days
  GI50: 220 ± 40 nM
A549; A549, 3 days
  GI50: 300 ± 10 nM
M14; M14, 3 days
  GI50: 300 ± 10 nM
Bovine brain tubulin
  Polymerization Inhibition (%) 3.3 μM: 0%
  Polymerization Inhibition (%) 33 μM: 100%

## COc1cc(C)c(-c2ccc(OC)c(=O)cc2C)c(OC)c1OC [compound 6, 2-Methoxy-6-methyl-5-(2,3,4-trimethoxy-6-methylphenyl)cyclohepta-2,4,6-trien-1-one]
[3]; 135 °C in xylenes, Eyring equation
  ΔG‡ of enantiomerization, experimental: 31.2 ± 0.3 kcal/mol

## COc1ccc(-c2ccc(=O)c(OC)cc2C)c(OC)c1OC [iso-4]
[2]
  Kd: 230000 nM
PC3; PC3, 3 days
  GI50: > 3000 nM
A549; A549, 3 days
  GI50: > 3000 nM
M14; M14, 3 days
  GI50: > 3000 nM
Bovine brain tubulin
  Polymerization Inhibition (%) 3.3 μM: 0%
  Polymerization Inhibition (%) 33 μM: 0%

## COc1cc(C)c(-c2ccc(=O)c(OC)cc2C)c(OC)c1OC [iso-6, 2-Methoxy-4-methyl-5-(2,3,4-trimethoxy-6-methylphenyl)cyclohepta-2,4,6-trien-1-one]
[3]; 145 °C for 10 h
  racemization on heating: no racemization was observed
[3]; from absence of racemization at 145 °C, 10 h
  projected rotational energy barrier: 37 kcal/mol
